Here are results for two compounds from publication PMC9519446, “Discovery of an Orally Active Benzoxaborole Prodrug Effective in the Treatment of Chagas Disease in Non-human Primates” (Nature microbiology, 2022).

Molecules are shown by their SMILES. Values joined by “and” are separate entries in the source; they are usually repeats but may differ in a detail not shown here. Identical values can stand only once.

Series [1] relates to tdTomato expressing T. cruzi (CL strain). In words: Rapid in vivo assay: footpad infection, single oral dose, fluorescence imaging 2 and 4 dpi (proliferation index).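 As to Parasite proliferation index of footpads infected with tdTomato-expressing T. cruzi: single oral dose of 50 mg/kg given at 2 dpi.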 The settings on record: for Fluorescence intensity of the feet of mice infected with tdTomato-expressing T. cruzi: individual feet. More on the design: species or system C57BL/6 mice. On the procedure:
Fluorescent intensity of the feet was measured at 2 dpi before compound administration and at 4 dpi in the Maestro in vivo imaging system equipped with the software Maestro 2.1.0 (CRi) as previously described. The proliferation index was estimated as PI=[(T4d – T2d)/(mUnt4d-mUnt2d)]*100; where T4d and T2d are the fluorescence intensity of the feet of the treated animals at days 4 and 2 post-infection respectively; mUnt4d and mUnt2d are the average fluorescence intensity of the feet of the untreated animals at 4 and 2 dpi respectively.

A short description of series [2]: Pharmacokinetic (PK) analysis in NHP. Type of series: in vivo, rhesus macaques (Macaca mulatta). The conditions noted are these: 30 mg/kg dose. On the procedure:
Mid- and end-regimen PK assessments were also performed. […] Only 1 blood sample was collected at a single time point from each of the 18 animals. […] The plasma samples were provided to Pharmout Labs (Fremont, California) for analysis using LC-MS/MS. […] For calculation of PK parameters, the Cmax (maximum concentrations) and tmax (time to maximum concentrations) were determined by visual inspection of the plasma concentration vs. time curves from the pre-regimen and end-regimen periods. PK calculation was not performed for the mid-regimen PK samples since only 2 time points were collected. The AUC values for the pre- and end-regimen were calculated using the linear-trapezoidal rule with the following equation: AUC(t1-t2)=[(Ct2+Ct1)x(t2-t1)]/2 where t1 and t2 are consecutive sampling time points, AUC(t1-t2) is the fractional area-under-the-curve over time intervals t1 and t2, Ct2 is the concentration at time t2, Ct1 is the concentration at time t1. […] AUC0-∞ was estimated using the following equation: AUC0-∞=[…] Where AUC0-∞ was AUC from zero to infinity, AUClast was the AUC from zero to the last measurable time point, Clast was the concentration at the last measurable time point. AUC0-∞ and t1/2 were not estimated when the terminal elimination phase was not defined. Plasma clearance (CLp) after the IV dose was estimated using the following: CLp = Dose/AUC0-∞.

For the compound `Cc1c(C(=O)NC(C(=O)OCc2ccc(F)c(F)c2)C(C)C)ccc2c1B(O)OC2` (stereo not shown) [AN14353], the “Fluorescence intensity of the feet of mice infected with tdTomato-expressing T. cruzi” value in series [1] (0.8 mg/kg) is 1665.8 and 1203.3 and 1103.9 and 2856.3 and 2240.9 and 2906.1 and 796.9 and 2912.6 and 793.9 and 2840.0; in series [1] (3.2 mg/kg) it was 1183.1 and 248.0 and 552.8 and 1244.2 and 574.1 and 807.8 and 439.5 and 1642.2 and 2070.5 and 1949.8; in series [1] (12.5 mg/kg), 556.7 and -13.5 and -118.4 and 985.8 and 248.2 and 312.2 and -170.7 and 977.4 and 456.5 and 1102.8; in series [1] (25 mg/kg), 916.6 and 1396.9 and 669.0 and 929.6 and 109.0 and 109.7 and 3.9 and 55.6 and 1126.1 and 448.9; in series [1] (40 mg/kg), 248.7 and 316.0 and 101.3 and 60.4 and 606.3 and -64.8 and 95.6 and 476.3 and 738.5 and 600.3. Moreover, the “Parasite proliferation index of footpads infected with tdTomato-expressing T. cruzi” value in series [1] (Fig. 3a, individual footpads) is 1.9 and 17.1 and 45.9 and 24.7 and 19.1 and 29.9 and -18.9 and -3.0 and 31.4 and 4.1.

Regarding `Cc1c(C(=O)N[C@H](C(=O)OCC2CCOCC2)C(C)C)ccc2c1B(O)OC2` [AN15368], the exposure in series [2] is 3.5 to 4.7 µg·h/kg.
